According to US20100093767A1, “Mitotic Kinase Inhibitors” (TAKEDA SAN DIEGO, INC., priority 2004, published 2010):

Molecular target: T1, KSP (HuEg5) (Homo sapiens, UniProt P52732)
T1 construct: I.D. No. 1 corresponds to residues 1-359 with the C-terminal 6-histidine tag; 6-histidine tag (C); made in house; host or cells: E. coli Tuner (DE3)
T1 sequence (P52732 with tags, fused parts or gaps): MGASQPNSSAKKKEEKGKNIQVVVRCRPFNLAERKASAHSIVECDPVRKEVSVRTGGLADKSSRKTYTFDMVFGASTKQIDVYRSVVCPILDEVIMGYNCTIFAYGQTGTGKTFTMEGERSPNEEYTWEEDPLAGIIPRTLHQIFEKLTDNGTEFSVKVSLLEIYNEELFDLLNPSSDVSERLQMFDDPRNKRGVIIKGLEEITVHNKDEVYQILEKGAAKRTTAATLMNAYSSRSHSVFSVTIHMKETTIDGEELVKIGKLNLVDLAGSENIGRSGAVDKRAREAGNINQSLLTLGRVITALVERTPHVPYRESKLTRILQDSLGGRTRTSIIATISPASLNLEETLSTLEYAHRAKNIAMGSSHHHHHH
Test: in vitro enzymatic KSP (HuEg5) ATPase activity assay
Assay type: biochemical
Details: reference compounds; coupled PK/LDH ATPase assay, 25 μM ATP, 12 nM enzyme, 60 minutes at room temperature
Description: The activity of compounds as KSP (HuEg5) inhibitors may be assayed in vitro, in vivo, or in a cell line. Further, compounds according to the present invention may be screened for activity against one or more kinesins. Provided below is the in vitro enzymatic KSP (HuEg5) ATPase activity assay for activity against KSP (HuEg5).
KSP (Eg5) DNA encoding residues 1-359 of the Kinesin motor domain sequence of the human enzyme may be amplified by PCR and cloned into the NcoI site of pET15b (Novagen), which incorporates a 6-histidine tag at the C-terminus. SEQ. I.D. No. 1 corresponds to residues 1-359 with the C-terminal 6-histidine tag and SEQ. I.D. No. 2 is the DNA sequence that was used to encode SEQ. […]
Recombinant protein may be isolated from cellular extracts by passage over ProBond resin (Invitrogen), and dialysis against buffer containing 25 mM Tris pH 7.6, 50 mM NaCl, 0.25 mM TCEP. The purity of KSP (Eg5) proteins may be determined on denaturing SDS-PAGE gel. […]
The inhibitory properties of compounds relative to KSP may be determined using a clear 384-well plate format under the following reaction conditions: 20 mM K-PIPES pH 6.8, 2 mM MgCl2, 1 mM EGTA, 1.5 mM KCl, 1 mM DTT, 0.01% Brij35, 25 μM ATP, 1 mM phosphoenolpyruvate (PEP), 0.4 mM NADH, 25 nM microtubules (MT), 1 μM Taxol, 30 units/ml rabbit muscle pyruvate kinase (PK), 30 units/ml rabbit muscle lactic dehydrogenase (LDH), and 2% DMSO. […]

IC50 [µM]	Compound
1.5	CCCCN1C(=O)C2Cc3c([nH]c4ccccc34)C(c3cccc(O)c3)N2C1=O (centres unmarked) [HR22C16]
45	CCOC(=O)C1=C(C)NC(=S)NC1c1cccc(O)c1 (centres unmarked) [Monastrol]
